In patent US20230227838A1, “ENHANCED CELL SURVIVAL AGAINST BIOTIC AND ABIOTIC STRESSES THROUGH SALICYLICK ACID-INDUCED NPR1 CONDENSATES” (priority 2020, published 2023):

Key:
CUL3 = assay: Pull-down of Myc-CUL3 with GST-fused NPR1 or variants co-expressed in E. coli; type: binding, Arabidopsis thaliana
From the text: (§1) Plasmid construction and E. coli-based ubiquitination: The coding sequences for all Arabidopsis genes were amplified from cDNA. Point mutations of AtNPR1 (AT1G64280) were generated using the QuikChange II site-directed mutagenesis kit (Agilent). Overlap PCR was used to generate the deletion/truncation mutations of AtCUL3A (AT1G26830) and AtNPR1. The WT and mutated coding sequences for all genes and gene fusions were sub-cloned into the pDONR207 gateway donor vector and confirmed by sequencing. The obtained entry vectors were recombined into either plant or E. coli destination vectors without or with an N- or C-terminal tag. For in planta expression, genes were recombined into the plant binary vectors pK7FWG2, pSITE-4NB and pLN462 to generate C-terminal eGFP, mCherry and HA fusions, respectively; into pK7WGF2, pEG201, pEG202, pEG203 and pEG204 to generate N-terminal eGFP, HA, FLAG, Myc and V5 fusions, respectively. […] For bimolecular fluorescence complementation (BiFC), entry vectors carrying the coding sequences of genes and their mutant variants were recombined into the pSITE-cEYFP-N1 binary vector for C-terminal fusion with the cYFP half (YC), or into the pSITE-nEYFP-C1 for N-terminal fusion with the nYFP half (YN). […]

EDS1 = assay: Interaction with EDS1 (co-IP in planta, pull-down in E. coli); type: binding, Arabidopsis thaliana; settings: in planta (1 mM SA 5 hr) and in E. coli
From the text: as §1

ETI activated by RPP1 = assay: ATR1/RPP1-induced cell death (conductivity assay); type: in vivo, Nicotiana benthamiana; settings: SA/NPR1-mediated; 1 mM SA
From the text: Chemical treatment, pathogen infection and cell death assays. […] At 2 days, the bacterial colonies were scored.
VIGS assay. The silencing of NbNPR1 (NbNPR1-RNAi) and NbCUL3 (NbCUL3-RNAi) was done using VIGS assay performed as previously described. Ten-day-old WT N. benthamiana plants were inoculated with Agrobacteria (GV3101) carrying the helper plasmid pTRV1-LIC mixed at 1:1 with a strain carrying either pTRV2-LIC (empty vector control, E.V.), pTRV2-NbPDS (positive control), pTRV2-NbNPR1 or pTRV2-NbCUL3 vectors. Ten days later, gene silencing in the mock and SA-treated plants was verified in the systemic leaves by qPCR using gene-specific and reference gene (eIF4a) primers (Table 6). NbNPR1 silencing was additionally confirmed by analysis of NbPR1 expression. The silenced leaves were used in the standard transient expression assay by agroinfiltration using strains carrying the indicated test genes; and gene expression was assayed at 2 dpi.

NPR1: wild-type Arabidopsis thaliana NPR1 protein, positive regulator of systemic acquired resistance
interaction with CUL3 when co-expressed in E. coli (CUL3): could be easily observed
interaction with EDS1 (EDS1): direct interaction

O=C(O)c1ccccc1O [SA, salicylic acid]
ETI activated by RPP1 (effector ATR1) (ETI activated by RPP1): inhibition

B1: sim3: SUMOylation-deficient mutant of NPR1 (protein)
chain: MDTTIDGFADSYEISSTSFVATDNTDSSIVYLAAEQVLTGPDVSALQLLSNSFESVFDSPDDFYSDAKLVLSDGREVSFHRCVLSARSSFFKSALAAAKKEKDSNNTAAVKLELKEIAKDYEVGFDSVVTVLAYVYSSRVRPPPKGVSECADENCCHVACRPAVDFMLEVLYLAFIFKIPELITLYQRHLLDVVDKVVIEDTLVILKLANICGKACMKLLDRCKEIIVKSNVDMVSLEKSLPEELVKEIIDRRKELGLEVPKVKKHVSNVHKALDSDDIELVKLLLKEDHTNLDDACALHFAVAYCNVKTATDLLKLDLADVNHRNPRGYTVLHVAAMRKEPQLAASALEKGASASEATLEGRTALMIAKQATMAVECNNIPEQCKHSLKGRLCVEILEQEDKREQIPRDVPPSFAVAADELKMTLLDLENRVALAQRLFPTEAQAAMEIAEMKGTCEFIVTSLEPDRLTGTKRTSPGVKIAPFRILEEHQSRLKALSKTVELGKRFFPRCSAVLDQIMNCEDLTQLACGEDDTAEKRLQKKQRYMEIQETLKKAFSEDNLELGNSSLTDSTSSTSKSTGGKRSNRKLSHRRR
modifications: left off: small tags and cut ends
notes: SUMOylation-deficient mutant of NPR1
interaction with EDS1 (EDS1): could interact
